Measurements as given in ChEMBL document CHEMBL1125053, “Dihydropyrimidine calcium channel blockers. 2. 3-substituted-4-aryl-1,4-dihydro-6-methyl-5-pyrimidinecarboxylic acid esters as potent mimics of dihydropyridines” (J Med Chem, 1990).

Target: Voltage-gated L-type calcium channel (Homo sapiens, UniProt Q13936+Q13698+Q01668+O60840)
Experiment: In vitro vasorelaxant activity (calcium channel blocking activity) was determined with potassium-depolarized rabbit thoracic aorta
Format: functional, tissue-based

Row | Compound | IC50
1 | CCO/C(O)=C1\C(C)=NC(=S)N(C(=O)N(C)C)C1c1cccc([N+](=O)[O-])c1 (centres undefined) | 270 nM
2 | CCOC(=O)C1=C(C)NC(OCC)=C(C(=O)OCC)C1c1cccc([N+](=O)[O-])c1 (centres undefined) | 26 nM
3 | CCOC(=O)N1C(=S)N=C(C)/C(=C(/O)OCC)C1c1cccc([N+](=O)[O-])c1 (centres undefined) | 17 nM
4 | CCOC(=O)C1=C(C)NC(SC)=NC1c1cccc([N+](=O)[O-])c1 (centres undefined) | 130 nM
5 | CCOC(=O)C1=C(C)NC(SCC)=C(C(=O)OCC)C1c1cccc([N+](=O)[O-])c1 (centres undefined) | 4 nM
6 | CCOC(=O)C1=C(C)N=C(OC)NC1c1cccc([N+](=O)[O-])c1 (centres undefined) | 710 nM
7 | CCOC(=O)N1C(=S)N=C(C)/C(=C(/O)OC(C)C)[C@H]1c1cccc([N+](=O)[O-])c1 | 2 nM
8 | CCOC(=O)N1C(=S)N=C(C)/C(=C(/O)OCC)C1c1ccccc1C(F)(F)F (centres undefined) | 26 nM
9 | CCCN1C(S)=NC(C)=C(C(=O)OCC)C1c1cccc([N+](=O)[O-])c1 (centres undefined) | 50 nM
